pIC50: −log10 of the molar value.
Legend:
[1] = biological target: Vascular endothelial growth factor receptor 2 (Homo sapiens, UniProt P35968); assay: Inhibitory activity against VEGFR2 kinase
[2] = biological target: Vascular endothelial growth factor receptor (Homo sapiens, UniProt P17948+P35916+P35968); assay: Inhibitory activity against VEGF-stimulated proliferation in HUVEC; type: functional

Sequence of Vascular endothelial growth factor receptor 2 (P35968 whole entry): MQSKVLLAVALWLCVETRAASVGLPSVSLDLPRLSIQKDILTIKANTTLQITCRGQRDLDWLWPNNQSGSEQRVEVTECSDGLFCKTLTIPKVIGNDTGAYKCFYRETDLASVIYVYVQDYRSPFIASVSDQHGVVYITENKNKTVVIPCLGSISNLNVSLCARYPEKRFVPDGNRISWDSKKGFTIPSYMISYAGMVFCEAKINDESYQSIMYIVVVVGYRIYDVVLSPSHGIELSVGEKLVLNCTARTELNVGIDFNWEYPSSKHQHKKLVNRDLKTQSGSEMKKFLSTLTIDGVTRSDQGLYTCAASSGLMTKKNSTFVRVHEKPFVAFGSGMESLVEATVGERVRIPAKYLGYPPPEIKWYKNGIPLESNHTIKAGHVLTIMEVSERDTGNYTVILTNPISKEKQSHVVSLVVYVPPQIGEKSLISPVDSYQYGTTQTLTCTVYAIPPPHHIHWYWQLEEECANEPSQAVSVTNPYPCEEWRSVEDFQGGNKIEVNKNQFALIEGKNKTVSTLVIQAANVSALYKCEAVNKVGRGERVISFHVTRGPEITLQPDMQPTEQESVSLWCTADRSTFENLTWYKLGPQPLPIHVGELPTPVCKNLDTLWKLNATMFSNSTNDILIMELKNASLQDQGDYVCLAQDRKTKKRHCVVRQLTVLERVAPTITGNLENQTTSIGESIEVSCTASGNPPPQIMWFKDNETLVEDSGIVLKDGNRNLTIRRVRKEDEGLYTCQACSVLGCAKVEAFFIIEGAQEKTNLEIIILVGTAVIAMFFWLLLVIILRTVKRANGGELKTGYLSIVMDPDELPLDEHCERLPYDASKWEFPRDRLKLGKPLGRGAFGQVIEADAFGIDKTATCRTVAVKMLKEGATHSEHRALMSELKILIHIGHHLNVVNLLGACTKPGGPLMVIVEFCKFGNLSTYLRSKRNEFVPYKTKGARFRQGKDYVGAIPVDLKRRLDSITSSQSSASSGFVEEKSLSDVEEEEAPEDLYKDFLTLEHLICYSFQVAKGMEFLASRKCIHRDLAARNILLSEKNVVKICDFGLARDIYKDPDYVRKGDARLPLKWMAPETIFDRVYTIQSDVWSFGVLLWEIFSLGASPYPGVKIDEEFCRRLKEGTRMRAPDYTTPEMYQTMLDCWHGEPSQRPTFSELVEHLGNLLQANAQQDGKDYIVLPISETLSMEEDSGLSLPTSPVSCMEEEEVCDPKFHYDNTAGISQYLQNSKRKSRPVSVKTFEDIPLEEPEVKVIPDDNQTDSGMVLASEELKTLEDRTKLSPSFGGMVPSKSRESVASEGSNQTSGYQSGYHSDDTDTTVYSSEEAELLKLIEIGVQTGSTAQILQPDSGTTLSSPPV

## COc1cc2ncnc(Nc3ccc(Cl)cc3F)c2cc1OC
[1]
  pIC50: 5.82

## COc1cc2c(Nc3ccc(Cl)cc3F)ncnc2cc1OCCOCCNC(=O)C(CCCCNC(=O)CCCCC1SCC2NC(=O)NC21)NC(=O)c1c(F)c(F)c(N=[N+]=[N-])c(F)c1F (stereo unspecified)
[2]
  IC50: 40.3 µM
[1]
  pIC50: 5.15

## COc1cc2c(Nc3ccc(Cl)cc3F)ncnc2cc1OCCOCCNC(=O)c1c(F)c(F)c(N=[N+]=[N-])c(F)c1F
[2]
  IC50: 3.2 µM
[1]
  pIC50: > 6.00

## COc1cc2c(Nc3ccc(Cl)cc3F)ncnc2cc1OCCOCCNC(=O)CCCCC1SCC2NC(=O)NC21 (stereo unspecified)
[2]
  IC50: 1.9 µM
[1]
  pIC50: 5.82

## COc1cc2c(Nc3ccc(Cl)cc3F)ncnc2cc1OCCNC(=O)CCCCC1SCC2NC(=O)NC21 (stereo unspecified)
[2]
  IC50: 14.7 µM
[1]
  pIC50: 5.32

## COc1cc2c(Nc3ccc(Cl)cc3F)ncnc2cc1OCCNC(=O)c1c(F)c(F)c(N=[N+]=[N-])c(F)c1F
[2]
  IC50: 4.1 µM
[1]
  pIC50: > 6.00
